The target in the assay is T1, TLR7 (Homo sapiens, UniProt Q9NYK1).
T1 construct: Fresh blood was collected from normal human donors; endogenous in cells; host or cells: human PBMCs from fresh donor blood
T1 sequence (Q9NYK1 27-1049): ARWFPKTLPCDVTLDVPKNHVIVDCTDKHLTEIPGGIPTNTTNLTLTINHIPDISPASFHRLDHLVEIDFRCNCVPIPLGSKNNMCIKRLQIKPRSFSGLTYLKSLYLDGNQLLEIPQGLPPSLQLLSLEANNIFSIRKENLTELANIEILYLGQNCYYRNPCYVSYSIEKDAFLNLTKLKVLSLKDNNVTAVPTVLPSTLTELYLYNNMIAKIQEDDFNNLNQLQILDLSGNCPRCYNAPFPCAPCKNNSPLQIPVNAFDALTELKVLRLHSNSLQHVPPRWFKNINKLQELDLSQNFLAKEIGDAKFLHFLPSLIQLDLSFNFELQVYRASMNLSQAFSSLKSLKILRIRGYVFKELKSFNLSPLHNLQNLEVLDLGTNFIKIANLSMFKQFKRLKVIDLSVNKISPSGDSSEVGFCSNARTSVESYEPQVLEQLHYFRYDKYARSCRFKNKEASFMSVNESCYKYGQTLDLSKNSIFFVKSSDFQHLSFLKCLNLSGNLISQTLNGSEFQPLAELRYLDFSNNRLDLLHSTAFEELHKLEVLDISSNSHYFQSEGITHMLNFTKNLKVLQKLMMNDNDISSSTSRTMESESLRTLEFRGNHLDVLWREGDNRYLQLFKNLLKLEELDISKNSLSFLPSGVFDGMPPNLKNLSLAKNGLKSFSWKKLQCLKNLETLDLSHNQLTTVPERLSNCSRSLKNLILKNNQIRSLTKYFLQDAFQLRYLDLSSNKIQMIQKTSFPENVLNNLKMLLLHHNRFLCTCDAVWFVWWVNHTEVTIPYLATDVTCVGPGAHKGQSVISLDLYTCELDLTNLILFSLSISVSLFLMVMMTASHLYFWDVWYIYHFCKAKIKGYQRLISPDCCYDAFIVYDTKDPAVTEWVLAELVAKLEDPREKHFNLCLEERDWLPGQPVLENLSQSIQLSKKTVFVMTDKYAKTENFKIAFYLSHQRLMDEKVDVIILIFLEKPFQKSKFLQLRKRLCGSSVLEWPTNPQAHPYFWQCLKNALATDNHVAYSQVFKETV
Nature of the assay: huPBMC TLR7 Antagonist IFNα Assay. Particulars: human PBMCs stimulated with ssRNA40 10 μg/mL (DOTAP), 14-16 hrs; IFNα2b AlphaLISA read-out. In kind it is cell-based. In a few lines: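 Human PBMCs from fresh donor blood (150,000 cells/well) stimulated 14–16 h at 37 °C with DOTAP-complexed ssRNA40 (final 1 μg/ml for TLR8, 10 μg/mL for TLR7) or ODN2216 (final 0.3 μM, TLR9), 0.25% DMSO, ten-point 1/3 compound dilutions. Supernatant IL-6 read by HTRF (TLR8); IFNα by IFNα2b AlphaLISA (TLR7/TLR9).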

Consider `Cc1nc(N2CCc3c(c(C)nn3CC34CCC(NCC5(CO)COC5)(CC3)CC4)C2)c2c(n1)c(C)nn2C` [compound 31, (3-(((4-((3-methyl-5-(1,3,5-trimethyl-1H-pyrazolo[4,3-d]pyrimidin-7-yl)-4,5,6,7-tetrahydro-1H-pyrazolo[4,3-c]pyridin-1-yl)methyl)bicyclo[2.2.2]octan-1-yl)amino)methyl)oxetan-3-yl)methanol], for which the IC50 turned out to be 13 nM.
Take `Cc1nc(N2CCc3c(c(C)nn3CC34CCC(NC(=O)[C@@H]5COCCN5)(CC3)CC4)C2)c2c(n1)c(C)nn2C` [compound 33, (S)-N-(4-((3-methyl-5-(1,3,5-trimethyl-1H-pyrazolo[4,3-d]pyrimidin-7-yl)-4,5,6,7-tetrahydro-1H-pyrazolo[4,3-c]pyridin-1-yl)methyl)bicyclo[2.2.2]octan-1-yl)morpholine-3-carboxamide]: the IC50 came to 55 nM.
The result for `Cc1nc(N2CCc3c(c(C)nn3CC34CCC(NC(=O)[C@@H]5CNCCO5)(CC3)CC4)C2)c2c(n1)c(C)nn2C` [compound 34, (S)-N-(4-((3-methyl-5-(1,3,5-trimethyl-1H-pyrazolo[4,3-d]pyrimidin-7-yl)-4,5,6,7-tetrahydro-1H-pyrazolo[4,3-c]pyridin-1-yl)methyl)bicyclo[2.2.2]octan-1-yl)morpholine-2-carboxamide] reads 13 nM; that for `Cc1nc(N2CCc3c(c(C)nn3CC34CCC(NC(=O)[C@H]5CNCCO5)(CC3)CC4)C2)c2c(n1)c(C)nn2C` [compound 36, (R)-N-(4-((3-methyl-5-(1,3,5-trimethyl-1H-pyrazolo[4,3-d]pyrimidin-7-yl)-4,5,6,7-tetrahydro-1H-pyrazolo[4,3-c]pyridin-1-yl)methyl)bicyclo[2.2.2]octan-1-yl)morpholine-2-carboxamide], 7 nM.
Under `Cc1nc(N2CCc3c(c(C)nn3CC34CCC(N5CCOCC5)(CC3)CC4)C2)c2c(C)noc2n1` [compound 37, 3,6-dimethyl-4-(3-methyl-1-((4-morpholinobicyclo[2.2.2]octan-1-yl)methyl)-6,7-dihydro-1H-pyrazolo[4,3-c]pyridin-5(4H)-yl)isoxazolo[5,4-d]pyrimidine] stands 159 nM.
For the molecule `Cc1nc(N2CCc3c(c(C)nn3CC34CCC(N5CCCCC5)(CC3)CC4)C2)c2c(n1)c(C)nn2C` [compound 38, 1,3,5-trimethyl-7-(3-methyl-1-((4-(piperidin-1-yl)bicyclo[2.2.2]octan-1-yl)methyl)-6,7-dihydro-1H-pyrazolo[4,3-c]pyridin-5(4H)-yl)-1H-pyrazolo[4,3-d]pyrimidine], the IC50 worked out at 42 nM.
In the case of `Cc1nc(N2CCc3c(c(C)nn3CC34CCC(N5CCCCC5)(CC3)CC4)C2)c2cnn(C)c2n1` [compound 39, 1,6-dimethyl-4-(3-methyl-1-((4-(piperidin-1-yl)bicyclo[2.2.2]octan-1-yl)methyl)-6,7-dihydro-1H-pyrazolo[4,3-c]pyridin-5(4H)-yl)-1H-pyrazolo[3,4-c]pyrimidine], the IC50 was 60 nM.
Regarding `[2H]C([2H])([2H])N(C([2H])([2H])[2H])C12CCC(Cn3nc(C)c4c3CCN(c3nc(C)nc5c(C)nn(C)c35)C4)(CC1)CC2` [compound 40, 4-((3-methyl-5-(1,3,5-trimethyl-1H-pyrazolo[4,3-d]pyrimidin-7-yl)-4,5,6,7-tetrahydro-1H-pyrazolo[4,3-c]pyridin-1-yl)methyl)-N,N-bis(trideuteromethyl)bicyclo[2.2.2]octan-1-amine], the IC50 came out at 70 nM.
As to `Cc1nn(CC23CCC(N)(CC2)CC3)c2c1CN(c1ccnc3[nH]ncc13)CC2` [compound 41, 4-((3-methyl-5-(1H-pyrazolo[3,4-b]pyridin-4-yl)-4,5,6,7-tetrahydro-1H-pyrazolo[4,3-c]pyridin-1-yl)methyl)bicyclo[2.2.2]octan-1-amine], the IC50 was found to be 6 nM.
Under `Cc1c2c(nn1CC13CCC(N)(CC1)CC3)CCN(c1ccnc3[nH]ncc13)C2` [compound 42, 4-((3-methyl-5-(1H-pyrazolo[3,4-b]pyridin-4-yl)-4,5,6,7-tetrahydro-2H-pyrazolo[4,3-c]pyridin-2-yl)methyl)bicyclo[2.2.2]octan-1-amine] stands 17 nM.
Under `Cc1cc(N2CCc3c(c(C)nn3CC34CCC(N)(CC3)C4)C2)c2cnn(C)c2n1` [compound 44, 4-((5-(1,6-dimethyl-1H-pyrazolo[3,4-b]pyridin-4-yl)-3-methyl-4,5,6,7-tetrahydro-1H-pyrazolo[4,3-c]pyridin-1-yl)methyl)bicyclo[2.2.1]heptan-1-amine] stands 38 nM; under `Cc1cc(N2CCc3c(c(C(F)(F)F)nn3CC34CCC(N)(CC3)CC4)C2)c2cnn(C)c2n1` [compound 45, 4-((5-(1,6-dimethyl-1H-pyrazolo[3,4-b]pyridin-4-yl)-3-(trifluoromethyl)-4,5,6,7-tetrahydro-1H-pyrazolo[4,3-c]pyridin-1-yl)methyl)bicyclo[2.2.2]octan-1-amine], 38 nM; under `Cc1cc(N2CCc3c(c(C)nn3CC34CCC(NCC(=O)N5CCCCC5)(CC3)CC4)C2)c2cnn(C)c2n1` [compound 99, 2-((4-((5-(1,6-dimethyl-1H-pyrazolo[3,4-b]pyridin-4-yl)-3-methyl-4,5,6,7-tetrahydro-1H-pyrazolo[4,3-c]pyridin-1-yl)methyl)bicyclo[2.2.2]octan-1-yl)amino)-1-(piperidin-1-yl)ethanone], 40 nM.
Under `Cc1cc(N2CCc3c(c(C)nn3CC34CCC(NC(=O)CN5CCCC5)(CC3)CC4)C2)c2cnn(C)c2n1` [compound 100, N-(4-((5-(1,6-dimethyl-1H-pyrazolo[3,4-b]pyridin-4-yl)-3-methyl-4,5,6,7-tetrahydro-1H-pyrazolo[4,3-c]pyridin-1-yl)methyl)bicyclo[2.2.2]octan-1-yl)-2-(pyrrolidin-1-yl)acetamide] stands 5 nM.
On to `COCCNC12CCC(Cn3nc(C)c4c3CCN(c3cc(C)nc5c3cnn5C)C4)(CC1)OC2` [compound 102, 1-((5-(1,6-dimethyl-1H-pyrazolo[3,4-b]pyridin-4-yl)-3-methyl-4,5,6,7-tetrahydro-1H-pyrazolo[4,3-c]pyridin-1-yl)methyl)-N-(2-methoxyethyl)-2-oxabicyclo[2.2.2]octan-4-amine], for which the IC50 amounted to 22 nM.
Under `Cc1cc(N2CCc3c(c(C)nn3CC34CCC(NC(=O)CCN(C)C)(CC3)CC4)C2)c2cnn(C)c2n1` [compound 105, N-(4-((5-(1,6-dimethyl-1H-pyrazolo[3,4-b]pyridin-4-yl)-3-methyl-4,5,6,7-tetrahydro-1H-pyrazolo[4,3-c]pyridin-1-yl)methyl)bicyclo[2.2.2]octan-1-yl)-3-(dimethylamino)propanamide] stands 14 nM; under `Cc1cc(N2CCc3c(c(C)nn3CC34CCC(NCC(=O)N5CCCC5)(CC3)CC4)C2)c2cnn(C)c2n1` [compound 106, 2-((4-((5-(1,6-dimethyl-1H-pyrazolo[3,4-b]pyridin-4-yl)-3-methyl-4,5,6,7-tetrahydro-1H-pyrazolo[4,3-c]pyridin-1-yl)methyl)bicyclo[2.2.2]octan-1-yl)amino)-1-(pyrrolidin-1-yl)ethanone], 63 nM; under `Cc1cc(N2CCc3c(c(C)nn3CC34CCC(N5CCO[C@H](C)C5)(CC3)CC4)C2)c2cnn(C)c2n1` [compound 107, (R)-4-(4-((5-(1,6-dimethyl-1H-pyrazolo[3,4-b]pyridin-4-yl)-3-methyl-4,5,6,7-tetrahydro-1H-pyrazolo[4,3-c]pyridin-1-yl)methyl)bicyclo[2.2.2]octan-1-yl)-2-methylmorpholine], 11 nM.
Under `Cc1cc(N2CCc3c(c(C)nn3CC34CCC(N5CCO[C@@H](C)C5)(CC3)CC4)C2)c2cnn(C)c2n1` [compound 109, (S)-4-(4-((5-(1,6-dimethyl-1H-pyrazolo[3,4-b]pyridin-4-yl)-3-methyl-4,5,6,7-tetrahydro-1H-pyrazolo[4,3-c]pyridin-1-yl)methyl)bicyclo[2.2.2]octan-1-yl)-2-methylmorpholine] stands 12 nM; under `Cc1cc(N2CCc3c(c(C)nn3CC34CCC(N5C[C@@H](C)O[C@@H](C)C5)(CC3)CC4)C2)c2cnn(C)c2n1` [compound 110, (2S,6R)-4-(4-((5-(1,6-dimethyl-1H-pyrazolo[3,4-b]pyridin-4-yl)-3-methyl-4,5,6,7-tetrahydro-1H-pyrazolo[4,3-c]pyridin-1-yl)methyl)bicyclo[2.2.2]octan-1-yl)-2,6-dimethylmorpholine], 7 nM.

Source of the values: US20240376099A1, “COMPOUNDS AND COMPOSITIONS AS INHIBITORS OF ENDOSOMAL TOLL-LIKE RECEPTORS” (Novartis AG, priority 2016, published 2024).
